Assay results published in patent publication US20040138193A1, “Oestrogen fatty acid monoester as a hypolipidaemic and antidiabetic agent” (priority 2001, published 2004).

Assays:
Zucker fa/fa rat = experiment: Plasma parameters after 10 days of daily oral gavage in Zucker fa/fa rats (type 2 diabetes model); type: in vivo; conditions: for plasma 3-hydroxybutyrate / plasma non-esterified fatty acids / plasma glucose / plasma insulin / plasma total cholesterol / plasma triacylglycerols: 10 days
Procedure: A study was carried out using the Zucker fa/fa rat as experimental animal model for type 2 diabetes. In these rats a marked insulin resistance is known; their circulating glucose levels are somewhat higher than in normal rats, but their insulin levels are much higher and show marked hypertriacylglycerolemia and hypercholesterolemia. Four groups of adult Zucker fa/fa rats were used, two groups of 6 male rats each and two groups of 6 female rats each. For each sex, the first group was used as control and the other was treated with the drug. All rats were kept under standard housing conditions, with free access to water and pellet food. The animals received a daily gavage of 0.2 ml of sunflower oil by means of a stomach tube. In the treated-rat groups, the oil contained enough oleoyl-estrone dissolved to provide a daily dose of 10 micromol per kg of rat weight. After 10 days of daily gavages, the rats were killed and their blood was recovered, being used to obtain plasma by centrifugation. Plasma samples were used for the analysis of glucose, total cholesterol and triacylglycerols by means of a dry-strip procedure (Spotchem, Menarini, Firenze, Italy), the levels of 3-hydroxybutyrate were measured with the kit 907979 from Boehringer Mannheim (Mannheim, Germany), and non-esterified fatty acids with the kit 1383175 from the same company. Insulin levels were measured through radioimmunoassay (rat insulin kit, Amersham, Amersham, United Kingdom).

obese rats = experiment: Lipoprotein separation by ultracentrifugation and lipid composition analysis, obese rats; type: in vivo, rat; conditions: 10 μmol/kg daily, vs controls
Text: FIG. 4 is analogous to FIG. 3, but for obese rats.
Lipoproteins in fresh plasma were fractionated by differential ultracentrifugation in known density media obtained through the addition of KBr. […] These fractions were used for the analysis of protein and lipidic components, and for the estimation of particle size.
Whole plasma, lipoprotein fractions and LPdp were used for the analysis of protein and lipid content. Total protein was estimated with the Bradford method (cf. M. M. Bradford, Anal. Biochem. 1976, vol. 72, pp. 248-254). Total cholesterol was measured in saline with a high-performance cholesterol kit. Triacylglycerol concentrations were measured with a commercial kit and the results were corrected for free glycerol. Phospholipid was quantified by a choline-based method. […] Recoveries for all plasma components (i.e. deviations from the values in whole plasma and those derived from the sum of its content in lipoprotein fractions) were lowest for triacylglycerols (88±3%) and highest for protein (92±3%). Sudan black-prestained serum samples were sepparated by polyacrylamide gel electrophoresis. Separation of lipoprotein classes through centrifugation allowed a detailed analysis of lipoprotein composition as shown in FIGS. 3 and 4.

lipoprotein lipase = experiment: Lipoprotein lipase activity in plasma and tissues of treated lean and obese rats; type: in vivo, rat; conditions: for Lipoprotein-lipase activity, WAT mesenteric, whole tissue of the rat / Lipoprotein-lipase activity, WAT periovaric, whole tissue of the rat / Lipoprotein-lipase activity, Muscle, whole tissue of the rat: 10 μmol/kg · d; for Lipoprotein-lipase activity, WAT mesenteric, whole tissue of the rat: calculated assuming all WAT had the specific activity of mesenteric WAT; for Lipoprotein-lipase activity, WAT periovaric, whole tissue of the rat: calculated assuming all WAT had the specific activity of periovaric WAT; for Lipoprotein-lipase activity, Liver, per gram of tissue protein / Lipoprotein-lipase activity, Liver, per unit of tissue weight / Lipoprotein-lipase activity, Liver, whole organ of the rat / Lipoprotein-lipase activity, Muscle, per gram of tissue protein / Lipoprotein-lipase activity, Muscle, per unit of tissue weight / Lipoprotein-lipase activity, Plasma / Lipoprotein-lipase activity, Plasma, per gram of protein / Lipoprotein-lipase activity, WAT mesenteric, per gram of tissue protein / Lipoprotein-lipase activity, WAT mesenteric, per unit of tissue weight / Lipoprotein-lipase activity, WAT periovaric, per gram of tissue protein / Lipoprotein-lipase activity, WAT periovaric, per unit of tissue weight / Lipoprotein-lipase activity, Plasma, whole compartment of the rat: daily gavage 10 μmol/kg · d; for Lipoprotein-lipase activity, Plasma, whole compartment of the rat: plasma mass taken as 2.75% of body weight; for overall lipoprotein lipase activity in the rat (muscle + liver + plasma + WAT): rough estimate
Procedure: Liver, muscle and WAT (white adipose tissue) samples were homogenized in 10 mM hepes buffer pH 7.5, containing 250 mM sucrose, 1 MM-EDTA and 1 mM dithiothreitol in order to measure lipoprotein lipase activity in tissues. Homogenates were clarified by centrifugation (10 min at 10,000×g) at 4° C. The assay mixture (pH 7.5) contained 0.6 mM tri-[9,10(n)-^3H]-oleoyl-glycerol, 50 mM MgCl2, 0.5 g/L albumin (fatty acid-free), 3 ml/L preheated (60 min at 50° C.)rat serum, 25 mM PIPES buffer and 0.02 ml of sample in a final volume of 0.2 ml; the incubation was carried out for 30 min at 25° C.; after the reaction was stopped, the [^3H]-oleate evolved was quantified. All measurements of lipoprotein lipase activity in plasma and liver homogenates were carried out in the presence of anti-rat hepatic lipase antiserum. The homogenate and plasma protein content were determined with the Bradford method.
The enzyme activity was expressed in nkat/L of plasma of nkat/kg of tissue; the values were also referred to plasma or tissue protein content. The overall share of potential activity of the enzymes studied was also estimated by determining the contribution of each organ/tissue: plasma, liver and WAT (white adipose tissue) enzyme activity in relation to body mass. The results are expressed as the total activity found per kg of body weight in a given tissue or compartment. The liver was directly weighed (3.38±0.10% of BW (body weight) for lean and 3.17±0.13% of BW for the obese). The mass of plasma was taken as a 2.75% of body weight (blood being 5% of body weight, and packed cell volume 45% of that value). Overall WAT lipoprotein lipase activity in both groups of animals was calculated using the mean values for either the periovaric or mesenteric locations of both sets of data and the proportions of WAT published for lean [15% of BW] control and oleoyl-estrone-treated [7% of BW] and obese Zucker fa/fa rat [35% BW] control and oleoyl-estrone-treated [28% BW]. Muscle mass was calculated also as a proportion of body weight: 43% for lean and 33 for obese rats.
Statistical analysis of the differences between groups was established using ANOVA programs and the Student's t test.

[1] = Zucker fa/fa rats, oral treatment vs controls
[2] = Zucker fa/fa rats, oral treatment vs controls, P<0.05
[3] = female obese Zucker fa/fa rats, 10 μmol/kg · d oral gavage
[4] = female obese Zucker fa/fa rats, 10 mol/kg · d oral gavage
[5] = male obese Zucker fa/fa rats, 10 μmol/kg · d oral gavage

effect on lipoprotein lipase activity in plasma (lipoprotein lipase; lean rats, vs controls): generalized rise
effect on lipoprotein lipase activity of the tissues studied (lipoprotein lipase; lean rats, vs controls): did not affect significantly
change of lipoprotein lipase activity in skeletal muscle (lipoprotein lipase; obese rats, vs control): increased fourfold
effect on lipoprotein lipase activity in WAT (lipoprotein lipase; obese rats, vs controls): decreases
effect on lipoprotein lipase activity in liver (lipoprotein lipase; obese rats, vs controls): no changes
effect on lipoprotein lipase activity in plasma (lipoprotein lipase; obese rats, vs controls): increases
Structure (SMILES): CCCCCCCC/C=C\CCCCCCCC(=O)Oc1ccc2c(c1)CC[C@@H]1[C@@H]2CC[C@]2(C)C(=O)CC[C@@H]12 [oleoyl-estrone]
change in 3-hydroxybutyrate (Zucker fa/fa rat; [1]): no changes
change in insulin levels (Zucker fa/fa rat; [1]): marked decrease
change in non-esterified fatty acids (Zucker fa/fa rat; [1]): no changes
change in plasma concentration of glucose (Zucker fa/fa rat; [2]): significant decreases
change in plasma concentration of total cholesterol (Zucker fa/fa rat; [2]): significant decreases
change in plasma concentration of triacylglycerols (Zucker fa/fa rat; [2]): significant decreases
plasma 3-hydroxybutyrate (Zucker fa/fa rat; [3]): 187 ± 26 µM
plasma non-esterified fatty acids (Zucker fa/fa rat; [3]): 642 ± 52 µM
plasma glucose (Zucker fa/fa rat; [4]): 4.91 ± 0.17 mM
plasma insulin (Zucker fa/fa rat; [4]): 1.78 ± 0.21 nM
plasma total cholesterol (Zucker fa/fa rat; [4]): 1.59 ± 0.29 mM
plasma triacylglycerols (Zucker fa/fa rat; [4]): 1.80 ± 0.17 mM
plasma 3-hydroxybutyrate (Zucker fa/fa rat; [5]): 281 ± 31 µM
plasma glucose (Zucker fa/fa rat; [5]): 6.14 ± 0.13 mM
plasma insulin (Zucker fa/fa rat; [5]): 1.11 ± 0.12 nM
plasma non-esterified fatty acids (Zucker fa/fa rat; [5]): 720 ± 110 µM
plasma total cholesterol (Zucker fa/fa rat; [5]): 1.77 ± 0.26 mM
plasma triacylglycerols (Zucker fa/fa rat; [5]): 1.88 ± 0.19 mM
change of HDL components (obese rats): all components decreased again with treatment, except for triacylglycerols
change of LDL components (obese rats): only tricylglycerol levels decreased
change of chylomicra and VLDL components (obese rats): marked decreases
change of total phospholipid levels in lipoprotein-depleted plasma (obese rats): decrease
levels of all lipid classes in whole plasma (obese rats): markedly lower levels
overall loss of lipoprotein lipase because of treatment (lipoprotein lipase; lean animals, vs control): 37%
Lipoprotein-lipase activity, WAT mesenteric, whole tissue of the rat (lipoprotein lipase; lean rats): 133 ± 64 nkat/rat
Lipoprotein-lipase activity, WAT periovaric, whole tissue of the rat (lipoprotein lipase; lean rats): 33.2 ± 5.0 nkat/rat
Lipoprotein-lipase activity, Muscle, whole tissue of the rat (lipoprotein lipase; lean rats, muscle mass calculated as 43% of body weight): 8.79 ± 0.72 nkat/rat
Lipoprotein-lipase activity, Liver, per gram of tissue protein (lipoprotein lipase; lean rats): 1.74 ± 0.32 nkat/g P
Lipoprotein-lipase activity, Liver, per unit of tissue weight (lipoprotein lipase; lean rats): 204 ± 48 pkat/g
Lipoprotein-lipase activity, Liver, whole organ of the rat (lipoprotein lipase; lean rats): 1.12 ± 0.34 nkat/rat
Lipoprotein-lipase activity, Muscle, per gram of tissue protein (lipoprotein lipase; lean rats): 3.09 ± 0.57 nkat/g P
Lipoprotein-lipase activity, Muscle, per unit of tissue weight (lipoprotein lipase; lean rats): 110.3 ± 41.3 pkat/g
Lipoprotein-lipase activity, Plasma (lipoprotein lipase; lean rats): 11.76 ± 1.75 pkat/mL
Lipoprotein-lipase activity, Plasma, per gram of protein (lipoprotein lipase; lean rats): 147.8 ± 18.9 pkat/g P
Lipoprotein-lipase activity, WAT mesenteric, per gram of tissue protein (lipoprotein lipase; lean rats): 779 ± 384 nkat/g P
Lipoprotein-lipase activity, WAT mesenteric, per unit of tissue weight (lipoprotein lipase; lean rats): 10.25 ± 4.94 nkat/g
Lipoprotein-lipase activity, WAT periovaric, per gram of tissue protein (lipoprotein lipase; lean rats): 317 ± 111 nkat/g P
Lipoprotein-lipase activity, WAT periovaric, per unit of tissue weight (lipoprotein lipase; lean rats): 2.56 ± 0.39 nkat/g
Lipoprotein-lipase activity, Plasma, whole compartment of the rat (lipoprotein lipase; lean rats): 59.2 ± 11.6 pkat/rat
overall lipoprotein lipase activity in the rat (muscle + liver + plasma + WAT) (lipoprotein lipase; lean treated rats): 152 nkat
decrease in mesenteric WAT lipoprotein lipase (lipoprotein lipase; lean, vs control): 64%
decrease in periovaric WAT lipoprotein lipase (lipoprotein lipase; lean, vs control): 45%
overall loss of lipoprotein lipase because of treatment (lipoprotein lipase; obese animals, vs control): 51%
Lipoprotein-lipase activity, WAT mesenteric, whole tissue of the rat (lipoprotein lipase; obese rats): 129 ± 27 nkat/rat
Lipoprotein-lipase activity, WAT periovaric, whole tissue of the rat (lipoprotein lipase; obese rats): 135 ± 19 nkat/rat
Lipoprotein-lipase activity, Muscle, whole tissue of the rat (lipoprotein lipase; obese rats, muscle mass calculated as 33% of body weight): 152 ± 18 nkat/rat
Lipoprotein-lipase activity, Liver, per gram of tissue protein (lipoprotein lipase; obese rats): 1.41 ± 0.21 nkat/g P
Lipoprotein-lipase activity, Liver, per unit of tissue weight (lipoprotein lipase; obese rats): 182 ± 27 pkat/g
Lipoprotein-lipase activity, Liver, whole organ of the rat (lipoprotein lipase; obese rats): 2.48 ± 0.26 nkat/rat
Lipoprotein-lipase activity, Muscle, per gram of tissue protein (lipoprotein lipase; obese rats): 40.8 ± 4.4 nkat/g P
Lipoprotein-lipase activity, Muscle, per unit of tissue weight (lipoprotein lipase; obese rats): 1383 ± 168 pkat/g
Lipoprotein-lipase activity, Plasma (lipoprotein lipase; obese rats): 7.19 ± 1.76 pkat/mL
Lipoprotein-lipase activity, Plasma, per gram of protein (lipoprotein lipase; obese rats): 107.1 ± 23.6 pkat/g P
Lipoprotein-lipase activity, WAT mesenteric, per gram of tissue protein (lipoprotein lipase; obese rats): 1767 ± 420 nkat/g P
Lipoprotein-lipase activity, WAT mesenteric, per unit of tissue weight (lipoprotein lipase; obese rats): 1.40 ± 0.29 nkat/g
Lipoprotein-lipase activity, WAT periovaric, per gram of tissue protein (lipoprotein lipase; obese rats): 245 ± 51 nkat/g P
Lipoprotein-lipase activity, WAT periovaric, per unit of tissue weight (lipoprotein lipase; obese rats): 1.46 ± 0.21 nkat/g
Lipoprotein-lipase activity, Plasma, whole compartment of the rat (lipoprotein lipase; obese rats): 51.4 ± 9.3 pkat/rat
overall lipoprotein lipase activity in the rat (muscle + liver + plasma + WAT) (lipoprotein lipase; obese treated rats): 338 nkat
decrease in mesenteric WAT lipoprotein lipase (lipoprotein lipase; obese, vs control): 87%
decrease in periovaric WAT lipoprotein lipase (lipoprotein lipase; obese, vs control): 56%
